The text below walks through data of patent US6509351B1, “Phenyl- and pyridyl-tetrahydro-pyridines having TNF inhibiting activity” (Sanofi-Syntelabo, priority 1999, dated 2003).

SMILES strings stand for the structures. Structures can show the parent of a compound that is named as a salt.

In turn, `CCc1cc2ccc(CCN3CC=C(c4cccc(C(F)(F)F)c4)CC3)cc2cn1` (as salt: hydrochloride) had a melting point of 230 °C. The value for `Cc1ccc2ccc(CCN3CC=C(c4cccc(C(F)(F)F)c4)CC3)cc2n1` (as salt: hydrochloride) was 221 °C.
